Assay results as given in PMC11923649, “Novel C-2 Aromatic Heterocycle-Substituted Triterpenoids Inhibit Hedgehog Signaling in GLI1 Overexpression Cancer Cells” (ACS Omega, 2025).
pIC50: −log10 of the molar value.

Key:
[1] = system: K562 (chronic myelogenous leukemia); assay: MTS cytotoxicity assay, 72 h, K562; assay type: cell-based; details: Homo sapiens, Table 1
Summary of the method: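 MTS read-out (A490 after 1–4 h with MTS/PMS) following 72 h continuous compound treatment. Concentrations spanned 50–0.0975 μmol/L in twofold steps; IC50 values calculated from the curves.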

[2] = system: Gli-mediated transcription (U-87 MG-Gli-FLuc reporter); assay: U-87 MG-Gli-FLuc reporter assay; assay type: cell-based, human; details: 24 h, 12.5–0.78 μmol/L; compared with GANT-61 at equimolar concentration
Procedure: A possible direct inhibition of the reporter (Fluc) and luminescence itself, which could lead to false positive results, was also ruled out in a cellular as well as a noncellular model (data not shown).
Figure 1 Effect of compounds 11a, 11b, and positive control GANT-61 on Gli1 activation and cell viability measured using the U-87 MG-Gli-FLuc reporter assay. Data are expressed as percentages of control (100%) and represent the mean of three independent experiments with the standard deviation. To distinguish specific inhibition of Gli activation from a nonspecific cellular response, an MTS assay was performed simultaneously under the same conditions in 96-well transparent plates. Statistical analysis of Gli1 activity was performed using one-sample Student’s t-test (mu = 100): *, p < 0.05; **, p < 0.01. The same analysis was used to assess cytotoxicity by MTS assay: #, p < 0.05; ##, p < 0.01.
The U-87 MG-Gli-FLuc reporter cell line was developed from the human glioblastoma line U-87 MG obtained from ATCC and cultured in EMEM medium supplemented with 10% FBS, 1 mmol/L sodium pyruvate, and a 1 mmol/L nonessential amino acid mixture. […] Panels were placed on a shaker to achieve complete cell lysis, and luminescence was measured after 3 min using an EnVision plate reader.

[3] = MDCK-MDR1 permeability assay; assay type: in vitro ADME; details: dog, MDCK-MDR1; for Papp A→B: cm/s, read-out: MDCK-MDR1 Papp (×10^−6)
From the text: (§1) The Parallel Artificial Membrane Permeability Assay (PAMPA) has emerged as a primary screen for determining passive transcellular permeability. […] The Caco-2 and MDCK-MDR1 permeability assays are established models of intestinal[37] and blood-brain barriers, respectively.[38]

MDCK-MDR1 monolayer = assay: MDCK-MDR1 permeability assay; assay type: in vitro ADME
From the text: as §1

MDR1 = assay: MDCK-MDR1 permeability assay; assay type: in vitro ADME; details: dog, MDCK-MDR1; B–A / A–B
From the text: as §1

SMILES | pIC50 [1] | Gli transcriptional activity [2] | recovery [3] [%] | Papp A→B [3] [×10⁻⁶ cm/s] | MDCK-MDR1 Active efflux (MDCK-MDR1 monolayer) | efflux ratio (MDR1)
C=C(C)[C@@H]1CC[C@]2(C(=O)O)CC[C@]3(C)C(CCC4[C@@]5(C)C=C(c6ccoc6)C(=O)C(C)(C)C5CC[C@]43C)C12 (stereo partly drawn) [Compound 11b, 2-(Furan-3-yl)-3-oxolupa-1,20(29)-dien-28-oic acid] | 5.02 | inhibited Gli transcriptional activity in a dose-response manner | 94.7 | 1.85 | Yes | 2.46
C=C(C)[C@@H]1CC[C@]2(C(=O)O)CC[C@]3(C)C(CCC4[C@@]5(C)C=C(c6ccco6)C(=O)C(C)(C)C5CC[C@]43C)C12 (stereo partly drawn) [Compound 11a, 2-(Furan-2-yl)-3-oxolupa-1,20(29)-dien-28-oic acid] | 5.20 | inhibited Gli transcriptional activity in a dose-response manner | 90.4 | 9.15 | No (less than or very close to the limit of active and passive efflux (≤2)) | 1.53
